Values of other authors in patent US20180267043A1, “USE OF BIOMARKERS FOR PREDICTING CLINICAL SENSITIVITY TO CANCER TREATMENT” (CELGENE CORPORATION, priority 2014, published 2018).

Key:
CRBN [1] = target: T1, CRBN (Homo sapiens, UniProt Q96SW2); details: in vitro; cited from earlier work
Target sequence in this assay (Q96SW2 whole entry): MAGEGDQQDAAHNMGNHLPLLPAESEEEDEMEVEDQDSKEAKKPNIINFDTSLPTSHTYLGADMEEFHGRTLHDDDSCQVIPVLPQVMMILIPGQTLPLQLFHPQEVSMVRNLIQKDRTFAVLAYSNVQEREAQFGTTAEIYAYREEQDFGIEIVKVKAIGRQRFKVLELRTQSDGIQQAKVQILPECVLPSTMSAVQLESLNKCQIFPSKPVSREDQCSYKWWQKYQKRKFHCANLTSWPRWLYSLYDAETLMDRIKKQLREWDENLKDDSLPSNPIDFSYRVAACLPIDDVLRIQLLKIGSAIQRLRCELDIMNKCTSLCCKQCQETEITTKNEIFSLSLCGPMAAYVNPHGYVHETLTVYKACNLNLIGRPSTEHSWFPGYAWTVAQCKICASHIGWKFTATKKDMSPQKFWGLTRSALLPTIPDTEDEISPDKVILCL
Target sequence in this assay (Q16531 whole entry partner): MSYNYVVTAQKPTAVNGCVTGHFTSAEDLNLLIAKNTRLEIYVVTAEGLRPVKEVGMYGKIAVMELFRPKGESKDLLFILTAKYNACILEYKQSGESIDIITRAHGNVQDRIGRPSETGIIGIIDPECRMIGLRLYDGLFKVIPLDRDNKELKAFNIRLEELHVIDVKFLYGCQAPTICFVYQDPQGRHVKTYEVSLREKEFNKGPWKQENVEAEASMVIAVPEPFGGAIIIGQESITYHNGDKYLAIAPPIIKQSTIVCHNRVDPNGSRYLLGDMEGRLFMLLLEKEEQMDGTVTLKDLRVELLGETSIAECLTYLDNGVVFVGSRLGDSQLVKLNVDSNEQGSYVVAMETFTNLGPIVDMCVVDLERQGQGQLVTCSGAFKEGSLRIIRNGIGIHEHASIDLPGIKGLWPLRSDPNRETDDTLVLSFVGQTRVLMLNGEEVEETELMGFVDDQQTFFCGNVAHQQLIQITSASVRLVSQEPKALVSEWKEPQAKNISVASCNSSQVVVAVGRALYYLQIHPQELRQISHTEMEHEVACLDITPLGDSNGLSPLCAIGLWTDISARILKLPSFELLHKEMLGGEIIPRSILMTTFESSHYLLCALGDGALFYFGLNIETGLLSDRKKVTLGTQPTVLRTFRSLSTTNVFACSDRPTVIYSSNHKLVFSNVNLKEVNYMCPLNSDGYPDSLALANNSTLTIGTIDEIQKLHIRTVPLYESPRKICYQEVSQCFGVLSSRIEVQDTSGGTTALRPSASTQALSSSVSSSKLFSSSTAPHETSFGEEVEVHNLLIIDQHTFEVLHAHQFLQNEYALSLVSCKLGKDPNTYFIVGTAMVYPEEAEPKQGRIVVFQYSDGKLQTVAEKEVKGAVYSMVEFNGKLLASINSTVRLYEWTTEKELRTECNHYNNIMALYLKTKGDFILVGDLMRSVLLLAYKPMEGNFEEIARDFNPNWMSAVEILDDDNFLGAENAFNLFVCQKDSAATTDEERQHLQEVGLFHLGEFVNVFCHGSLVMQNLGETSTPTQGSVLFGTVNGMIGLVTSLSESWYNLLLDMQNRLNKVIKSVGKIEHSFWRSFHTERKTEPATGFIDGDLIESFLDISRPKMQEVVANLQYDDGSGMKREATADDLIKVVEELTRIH
Target sequence in this assay (Q13619 whole entry partner): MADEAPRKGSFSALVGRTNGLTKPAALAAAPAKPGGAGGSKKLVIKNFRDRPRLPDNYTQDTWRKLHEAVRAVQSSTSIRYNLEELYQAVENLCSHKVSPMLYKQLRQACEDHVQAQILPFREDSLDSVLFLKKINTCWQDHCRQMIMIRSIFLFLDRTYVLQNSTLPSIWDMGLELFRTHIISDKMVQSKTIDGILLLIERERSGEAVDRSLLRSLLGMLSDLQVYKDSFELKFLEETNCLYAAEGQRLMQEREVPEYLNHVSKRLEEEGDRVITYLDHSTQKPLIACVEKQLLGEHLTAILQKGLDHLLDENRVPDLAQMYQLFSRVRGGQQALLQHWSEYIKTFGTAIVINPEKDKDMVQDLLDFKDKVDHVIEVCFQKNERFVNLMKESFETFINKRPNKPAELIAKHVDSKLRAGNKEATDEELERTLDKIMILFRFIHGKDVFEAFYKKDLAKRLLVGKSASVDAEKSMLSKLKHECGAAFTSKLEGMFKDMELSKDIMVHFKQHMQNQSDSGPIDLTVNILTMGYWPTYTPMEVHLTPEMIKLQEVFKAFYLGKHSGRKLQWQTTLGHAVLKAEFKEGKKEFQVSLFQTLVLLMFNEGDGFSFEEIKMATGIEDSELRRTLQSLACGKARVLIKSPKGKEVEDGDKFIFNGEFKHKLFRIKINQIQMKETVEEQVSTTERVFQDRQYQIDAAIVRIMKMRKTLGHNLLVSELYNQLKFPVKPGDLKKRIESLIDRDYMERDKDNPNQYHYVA
Target sequence in this assay (P62877 whole entry partner): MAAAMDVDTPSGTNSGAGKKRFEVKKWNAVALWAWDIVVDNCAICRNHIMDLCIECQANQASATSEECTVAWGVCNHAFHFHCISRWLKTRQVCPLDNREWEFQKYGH

CRBN [2] = target: CRBN (Homo sapiens, UniProt Q96SW2, W386A/Y384A); details: double mutant; cited from earlier work
CRBN [3] = target: T1, CRBN; details: Ito et al., Science 2010; cited from earlier work
Target sequence in this assay (Q96SW2 whole entry): as the sequence (Q96SW2 whole entry) above

CRBN [4] = details: individual point mutants; cited from earlier work

Sequence of CRBN (Homo sapiens, UniProt Q96SW2, W386A/Y384A) (Q96SW2 whole entry Y384A/W386A): as the sequence (Q96SW2 whole entry) above, with Y384A, W386A counted along it

## O=C1CCC(N2C(=O)c3ccccc3C2=O)C(=O)N1 (stereo not shown) [thalidomide]
CRBN [1]
  Auto-ubiquitination of CRBN: inhibit auto-ubiquitination of CRBN in vitro
CRBN [2]
  Binding to CRBN double mutant (Y384A, W386A): lowest thalidomide-binding activity
CRBN [3]
  Binding to CRBN: binds to thalidomide
CRBN [4]
  Binding to CRBN point mutants Y384A and W386A: both defective for thalidomide binding
